Assay results published in the NIST ThermoML archive (doi:10.1021/acs.jced.6b00587).
± gives the expanded uncertainty stated by the source.

Conditions: Liquid, Ebulliometric method (Recirculating still)

CCCOCCC [dipropyl ether]
Conditions	vapor or sublimation pressure [kPa]
326.73 K	29.35 ± 0.78
332.57 K	36.71 ± 0.79
336.55 K	42.54 ± 0.81
341.15 K	49.98 ± 0.83
345.34 K	57.75 ± 0.85
346.55 K	60 ± 1
346.63 K	60 ± 1
347.55 K	62.3 ± 0.94
352.11 K	72.36 ± 0.91
354.82 K	78.97 ± 0.94
356.85 K	84.25 ± 0.96
358.73 K	89.3 ± 0.99
361.18 K	96.32 ± 1
362.87 K	101.3 ± 1

CCCCCCC [heptane]
Conditions	vapor or sublimation pressure [kPa]
331.39 K	26.15 ± 0.77
335.45 K	30.59 ± 0.78
341.94 K	38.89 ± 0.79
347.16 K	46.8 ± 0.81
349.68 K	50.97 ± 0.83
352.58 K	56.2 ± 0.84
354.63 K	60 ± 1
356.78 K	64.6 ± 0.89
359.38 K	70.24 ± 0.9
362.11 K	76.47 ± 0.92
364.95 K	83.45 ± 0.94
366.87 K	88.4 ± 1
371.28 K	101.3 ± 1

CCCCOCC [butyl ethyl ether]
Conditions	vapor or sublimation pressure [kPa]
336.22 K	38.6 ± 0.81
340.35 K	44.96 ± 0.82
344.21 K	51.67 ± 0.83
346.8 K	56.24 ± 0.84
348.84 K	60 ± 0.87
350.44 K	63.63 ± 0.9
354.01 K	71.58 ± 0.91
357.31 K	79.6 ± 0.95
361.44 K	90.59 ± 0.97
363.47 K	96.36 ± 0.99
365.25 K	101.3 ± 0.99
